Data from PMC5845353, “The selective cathepsin K inhibitor MIV-711 attenuates joint pathology in experimental animal models of osteoarthritis” (Journal of Translational Medicine, 2018).
Marks after values point to notes of the source that are not given here.

How the values were obtained:
[1] = system: dogs subjected to partial medial meniscectomy; test: Dog partial medial meniscectomy study, tibial cartilage lesion area by imaging analysis of photographs; assay type: in vivo; details: 30 µmol/kg
Procedure: Dogs subjected to partial medial meniscectomy received either 30 µmol/kg MIV-711 (synthesized by Medivir and given as a suspension in 1% Methocel A4C; n = 15) or vehicle (1% Methocel A4C; n = 15) by orogastric gavage once daily in the morning. […] Dosing started the day before surgery and lasted through Day 28, the day before necropsy. Each dog was fasted for at least 12 h before dosing and food were returned approximately 4 h following test article administration.
All animals were humanely euthanized on Day 29 to collect specimens for pathology. Following sedation with acepromazine, euthanasia was performed via injection of a pentobarbital-based euthanasia solution (≥ 88 mg/kg pentobarbital). At study termination, the left (operated) knee was opened, disarticulated and the lesions on the medial tibia and femur measured, described and photographed. The observers were blinded to the treatment. Photographs were used (with or without India Ink lesion enhancement) to determine % area of lesions on each medial tibial plateau. Lesions were classified as more severe or less severe depending on the intensity of India ink staining or perception of depth and areas for each calculated. Gross cartilage lesions were measured (length × width) and described as superficial, moderate, or deep. Gross subjective cartilage degeneration scores were assigned for the medial and lateral tibial and femoral compartments as follows based on lesion measurements (see above): 0: normal, 1: superficial degeneration up to 10 mm^2, 2: superficial degeneration greater than 10 mm^2, 3: moderate depth degeneration up to 15 mm^2, 4: moderate depth degeneration greater than 15 mm^2. Subjective scores for the various regions were then used to generate an overall index of subjective cartilage degeneration for each region for each animal. Actual measurements of cartilage lesions were used to derive a calculated set of data points based on length × width × depth score (with depth score of 1 = superficial, 2 = medium, and 3 = deep, based on gross description). Percent of more or less severe tibial lesion area was determined from photographs taken at necropsy.

dog cathepsin K enzyme = details: read-out: Ki against dog cathepsin K enzyme; cited from earlier work
[2] = system: rabbits subjected to anterior cruciate ligament transection (ACLT); test: Rabbit ACLT study, µCT of subchondral bone plate; assay type: in vivo
Excerpt: The animals were acquired following review and approval by the Institutional Animal Care and Use Committee (IACUC) at Numira (Salt Lake City, UT). The protocol was also reviewed and approved by the IACUC at Ibex Preclinical Research Inc. (Logan, UT). Male, New Zealand White rabbits (n = 32) were purchased from the Western Oregon Rabbit Co. (Philomath, OR). The animals were approximately 9 months old, weighed 3.7–4.5 kg at the start of the experiment and were randomized into four treatment groups based on body weight.
Pre-operative butorphanol (0.5–1.0 mg/kg, i.m.) for analgesia and glycopyrrolate (~ 0.1 mg/kg i.m.) were administered up to 15 min prior to induction. Anesthesia was induced by a mixture of ketamine (20–40 mg/kg, i.m.) and xylazine (5–10 mg/kg, i.m.), followed by placement of an endotracheal tube. General anesthesia was maintained with isoflurane. Perioperative cefazolin (40 mg/kg, i.v.) was administered, and […] (0.2 mg/kg, i.v.) was administered to reverse the effects of xylazine after endotracheal intubation was complete. A fentanyl patch (25 µg/h) was placed on a clipped area of the skin to provide post-operative analgesia. An incision of 1.5–2.5 cm was made in the skin over the medial side of the right knee under aseptic conditions. The patella was dislocated laterally and the knee placed in full flexion. The anterior cruciate ligament (ACL) was visualized and transected with an appropriate blade. In sham animals, the ACL was visualized but not transected. The joint was irrigated with sterile saline and closed. The muscle and skin were closed with suture and/or surgical glue. Butorphanol (0.5–1 mg/kg, i.m.) was administered after extubation to provide supplemental analgesia. The animals were then individually housed in stainless steel or plastic cages.
Starting 1 week after sham operation or ACLT, animals were dosed daily for 7 weeks by oral gavage with either MIV-711 (synthesized by Medivir and given as a suspension in 1% Methocel A4C in water) or vehicle (1% Methocel A4C in water) at a dose volume of 4 mL/kg. The four treatment groups (n = 7 in each group) were: (1) sham + vehicle; (2) ACLT + vehicle; (3) ACLT + MIV-711, 30 µmol/kg (low dose) and (4) ACLT + MIV-711, 100 µmol/kg (high dose).
Femora and tibias from all animals were subjected to µCT scanning without and with contrast reagent, to visualize bone and cartilage, respectively. Samples were scanned on a high-resolution, volumetric µCT scanner (μCT40, ScanCo Medical, Zurich, CH). The image data was acquired with the following parameters: 36 μm isotropic voxel resolution at 300 ms exposure time, 2000 views and 1 frame per view. Each sample was scanned twice, once for acquiring bone data and once for soft tissue data. After the bone scans, the knees were stained using hexabrix for contrast-enhanced imaging of the cartilage. The µCT-generated DICOM files were used to analyze the samples and to create volume renderings of the regions of interest (ROI). The raw data files were converted into a file format compatible with the segmentation software VHLab (Numira). VHLab was used for segmenting out the regions of interest (osteophyte, cartilage, and subchondral bone) for the femur and tibia of each sample. A region spanning 9 mm of the articulating surface of the femur and 6.5 mm of the tibia was selected for segmenting out the cartilage and subchondral bone in the anterior–posterior direction. After the segmentation process, the voxel count associated with each of the regions of interest was calculated using VHLab. The voxel count was then multiplied by the cubic voxel resolution to obtain volume measurements for the different ROI. Cartilage thickness was calculated using SCIRun (Scientific Computing and Imaging Institute, University of Utah). The distance from the bone to the outer surface of the articulating cartilage was calculated. An image was generated that translates the distances into a color map for viewing the thickness along the length of the cartilage. […]

SMILES: C#C[C@@H]1CN(C(=O)[C@H](CC(C)C)NC(=O)c2ccc(-c3nc(N4CCN(C)CC4)sc3F)cc2)[C@@H]2C(=O)CO[C@H]12 [MIV-711]
- Total lesion area, reduction vs vehicle (printed in Fig. 7) ([1]; dog, left tibia plateau): 26%
- proportion of tibial cartilage affected by lesions (lesioned area) ([1]; dog, left tibia plateau, vehicle 21.0% ± 2.6): 15.5%
- area of severe lesions, lower than vehicle group ([1]; dog, p = 0.08): 80%
- dogs with severe tibial cartilage lesions ([1]; dog, vehicle 6/15): 3/15
- area of severe tibial cartilage lesions ([1]; three dogs with severe lesions, vehicle 10 ± 4%): 2 ± 1%
- Ki (dog cathepsin K enzyme): 1.5 nM
- Subchondral bone plate Thickness, Lateral ([2]; Femur, high dose 100 µmol/kg): 321 ± 11 µm
- Subchondral bone plate Thickness, Medial ([2]; Femur, high dose 100 µmol/kg): 388 ± 9 µm
- Subchondral bone plate Thickness, Total ([2]; Femur, high dose 100 µmol/kg): 353 ± 8 µm
- Subchondral bone plate Volume, Lateral ([2]; Femur, high dose 100 µmol/kg): 25.7 ± 1.2* mm^3
- Subchondral bone plate Volume, Medial ([2]; Femur, high dose 100 µmol/kg): 29.9 ± 1.0 mm^3
- Subchondral bone plate Volume, Total ([2]; Femur, high dose 100 µmol/kg): 55.6 ± 2.0* mm^3
- Subchondral bone plate Thickness, Lateral ([2]; Femur, low dose 30 µmol/kg): 316 ± 10 µm
- Subchondral bone plate Thickness, Medial ([2]; Femur, low dose 30 µmol/kg): 380 ± 13 µm
- Subchondral bone plate Thickness, Total ([2]; Femur, low dose 30 µmol/kg): 347 ± 10 µm
- Subchondral bone plate Volume, Lateral ([2]; Femur, low dose 30 µmol/kg): 25.0 ± 0.6* mm^3
- Subchondral bone plate Volume, Medial ([2]; Femur, low dose 30 µmol/kg): 29.4 ± 0.8 mm^3
- Subchondral bone plate Volume, Total ([2]; Femur, low dose 30 µmol/kg): 54.4 ± 0.8* mm^3
- Subchondral bone plate Thickness, Lateral ([2]; Tibia, high dose 100 µmol/kg): 353 ± 12 µm
- Subchondral bone plate Thickness, Medial ([2]; Tibia, high dose 100 µmol/kg): 462 ± 13 µm
- Subchondral bone plate Thickness, Total ([2]; Tibia, high dose 100 µmol/kg): 401 ± 8 µm
- Subchondral bone plate Volume, Lateral ([2]; Tibia, high dose 100 µmol/kg): 20.7 ± 1.0* mm^3
- Subchondral bone plate Volume, Medial ([2]; Tibia, high dose 100 µmol/kg): 20.6 ± 0.5 mm^3
- Subchondral bone plate Volume, Total ([2]; Tibia, high dose 100 µmol/kg): 41.2 ± 0.9* mm^3
- Subchondral bone plate Thickness, Lateral ([2]; Tibia, low dose 30 µmol/kg): 326 ± 18 µm
- Subchondral bone plate Thickness, Medial ([2]; Tibia, low dose 30 µmol/kg): 452 ± 15 µm
- Subchondral bone plate Thickness, Total ([2]; Tibia, low dose 30 µmol/kg): 383 ± 15 µm
- Subchondral bone plate Volume, Lateral ([2]; Tibia, low dose 30 µmol/kg): 18.5 ± 1.3* mm^3
- Subchondral bone plate Volume, Medial ([2]; Tibia, low dose 30 µmol/kg): 20.6 ± 0.8 mm^3
- Subchondral bone plate Volume, Total ([2]; Tibia, low dose 30 µmol/kg): 39.1 ± 2.0* mm^3
- femur subchondral bone plate total thickness, difference vs. sham ([2]; low dose 30 µmol/kg): 0%
- tibia subchondral bone plate total thickness, difference vs. sham ([2]; low dose 30 µmol/kg): 0%
